Data: patent US20250340603A1, “A METHOD FOR MODULATING PLANT ADAPTATION TRAITS” (CRAG (Centre de Recerca en Agrigenòmica), priority 2021, published 2025)

T1: BRL3 (BRASSINOSTEROID RECEPTOR LIKE 3), full length, fused to a half of YFP (BiFC construct) (Arabidopsis thaliana, UniProt Q9LJF3 24-1164)
T1 construct: also called BRL3 receptor; AT3G13380; not shown: half of YFP (YN or YC, both directions tested) from vectors pGTQL1211-YN / pGTQL1221-YC
T1 sequence: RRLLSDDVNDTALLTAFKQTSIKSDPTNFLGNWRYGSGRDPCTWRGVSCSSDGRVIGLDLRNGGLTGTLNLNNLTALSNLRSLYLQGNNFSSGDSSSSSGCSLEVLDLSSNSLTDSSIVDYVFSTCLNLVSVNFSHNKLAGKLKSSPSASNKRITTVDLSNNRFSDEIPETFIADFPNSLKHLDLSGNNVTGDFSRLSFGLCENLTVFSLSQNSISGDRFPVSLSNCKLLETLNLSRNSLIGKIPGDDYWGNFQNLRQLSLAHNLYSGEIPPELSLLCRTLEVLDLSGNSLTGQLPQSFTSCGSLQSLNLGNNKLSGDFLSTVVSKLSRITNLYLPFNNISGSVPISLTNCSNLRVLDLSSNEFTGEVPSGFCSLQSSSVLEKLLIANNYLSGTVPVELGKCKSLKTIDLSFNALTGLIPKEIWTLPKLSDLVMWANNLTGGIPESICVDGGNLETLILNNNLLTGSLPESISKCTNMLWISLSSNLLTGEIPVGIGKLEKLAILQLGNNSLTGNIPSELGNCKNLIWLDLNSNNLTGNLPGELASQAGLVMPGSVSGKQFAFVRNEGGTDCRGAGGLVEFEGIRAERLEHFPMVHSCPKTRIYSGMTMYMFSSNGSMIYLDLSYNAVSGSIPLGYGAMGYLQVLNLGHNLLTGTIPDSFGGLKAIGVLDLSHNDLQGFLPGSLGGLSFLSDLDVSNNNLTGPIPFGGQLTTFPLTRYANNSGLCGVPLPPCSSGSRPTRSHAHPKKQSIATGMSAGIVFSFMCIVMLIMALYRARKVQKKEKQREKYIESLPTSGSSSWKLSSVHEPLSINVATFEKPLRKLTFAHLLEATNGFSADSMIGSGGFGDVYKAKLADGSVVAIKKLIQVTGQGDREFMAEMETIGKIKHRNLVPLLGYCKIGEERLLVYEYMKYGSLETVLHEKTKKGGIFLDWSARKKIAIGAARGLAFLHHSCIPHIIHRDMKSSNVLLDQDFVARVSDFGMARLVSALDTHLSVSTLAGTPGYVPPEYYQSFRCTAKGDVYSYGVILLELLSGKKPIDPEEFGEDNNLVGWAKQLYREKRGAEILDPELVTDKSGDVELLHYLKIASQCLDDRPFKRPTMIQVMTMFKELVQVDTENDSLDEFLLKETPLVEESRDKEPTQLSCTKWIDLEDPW


Assays:
[1] = system: WT (Col-0) seedlings; experiment: BRZ220 treatment, hypocotyl elongation growth; format: in vivo, Arabidopsis thaliana; conditions: 1 μM BRZ220 in media, WT plants, 22° C. or 28° C., 6 d, LD
Experimental: Pharmacological treatments were performed in plates adding hormones/drugs in the media. Chemicals used include; 1 μM BRZ220 (Gift from T. Nakano, RIKEN, Japan) or 50 μM Bikinin (200980, Sigma-Aldrich) for 6-d in control (long days, 22° C.) or high temperature (long days, 28° C.) conditions. Hypocotyl length were measured using the Image J software (v.1.48v) (https-/imagej.nih.gov/ij/). For hypocotyl elongation analysis, seedlings were grown in horizontally placed 0.5MS− media plates in controlled growth conditions (Aralab 600; long days 16:8h day/night cycle 60% relative humidity and 50-70 μmol m^−2 s^−1 of cool-white fluorescent light) at 22° C. or 28° C. temperature for 5-7d. Plates were photographed and hypocotyl length were measured using the ImageJ software (v.1.48v) (https:/imagej.nih.gov/ij/). For root growth analysis, seedlings were grown in vertically placed 0.5MS− media plates in controlled growth conditions (Aralab 600; long days 16:8h day/night cycle; 22° C.). MyROOT software (Betegón-Putzé et al., 2019) was used to compare root growth of plants. Lateral roots were manually counted under a stereozoom microscope in 9-d-old seedlings.

[2] = biological target: T1, BRL3 (BRASSINOSTEROID RECEPTOR LIKE 3), …; experiment: BiFC (split YFP) in Nicotiana benthamiana leaves, confocal microscopy

binding result [2] | Molecule | hypocotyl size [1]
 | CC(O)(c1ccccc1)C(Cc1ccc(Cl)cc1)n1cncn1 (centres unmarked) [BRZ220, Brassinazole] | reduced hypocotyl size irrespective of the temperature
no binding | BKI1, BiFC negative control (other, UniProt Q9FMZ0 1-337, looked up, whole, on cells; not shown: the construct of this control is not described) METNLQQVKNSSQTFSEKQNPKQEASPSPISSTCSSPSHDFSFTISLQPLSSSSKHISPTLRSPSKTTSSYQQTDPFAVDLSPADEIFFHGHLLPLHLLSHLPVSPRTSTGSYNDGFTLPVKDILPDQPTNNNNNTENAITNISTEAKDDNTEDKAEGEIRVKTKPIKSFSLFGLSKWRKGFESNEREQEQQQQKIKKPMSLDLSHAVKKYIRMLFQKRGNGTQFWNRRQTSSYSFSSSLMGPNGNSKTMINGSYNKRDLIRGRRGELFSAPASMRTSPTNSGHLRVSTAGLSSSSGSTSSSSSDSTMEELQAAIQAAIAHCKNSSAVDRDDKVKDS | 
